Target: GST-Bcl-2 (Homo sapiens (Human), UniProt P10415)
Experiment: Time Resolved-Fluorescence Resonance Energy Transfer (TR-FRET) Bcl-2 binding assay
Details: GST-Bcl-2 1 nM, F-Bak peptide probe 100 nM, Tb-anti-GST antibody 1 nM; Ki by Wang's equation
Experimental: Determination of the utility of compounds having Formula (I) as binders to and inhibitors of anti-apoptotic Bcl-2 proteins was performed using the Time Resolved-Fluorescence Resonance Energy Transfer (TR-FRET) Assay. Tb-anti-GST antibody was purchased from Invitrogen (Catalog No. PV4216).
(§1) Representative compounds were serially diluted in dimethyl sulfoxide (DMSO) starting at 50 μM (2× starting concentration; 10% DMSO) and 10 μL were transferred into a 384-well plate. The samples are then mixed on a shaker for 1 minute and incubated for an additional 3 hours at room temperature. For each assay, the probe/antibody and protein/probe/antibody were included on each assay plate as negative and positive controls, respectively. Fluorescence was measured on the Envision (Perkin Elmer) using a 340/35 nm excitation filter and 520/525 (F-Bak peptide) and 495/510 nm (Tb-labeled anti-Histidine antibody) emission filters.
as §1, with “The” for “Representative compounds were serially diluted in dimethyl sulfoxide (DMSO) starting at 50 μM (2× starting concentration; 10% DMSO) and 10 μL were transferred into a 384-well plate. The”, “were” for “are”
The inhibition constant (Ki) is the dissociation constant of an enzyme-inhibitor complex or a protein/small molecule complex, wherein the small molecule is inhibiting binding of one protein to another protein. So a large Ki value indicates a low binding affinity and a small Ki value indicates a high binding affinity.

GST-Bcl-2, sequence (P10415 whole entry): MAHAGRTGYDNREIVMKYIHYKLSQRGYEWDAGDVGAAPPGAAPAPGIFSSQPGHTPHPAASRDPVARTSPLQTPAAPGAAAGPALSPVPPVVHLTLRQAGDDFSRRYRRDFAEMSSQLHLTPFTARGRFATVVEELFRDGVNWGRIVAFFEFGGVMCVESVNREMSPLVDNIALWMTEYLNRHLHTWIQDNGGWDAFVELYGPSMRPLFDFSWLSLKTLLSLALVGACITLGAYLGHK

`CN(C)c1cccc(Oc2cc(N3CCN(Cc4ccccc4-c4ccc(Cl)cc4)CC3)ccc2C(=O)NS(=O)(=O)c2ccc(NCC3CCOCC3)c([N+](=O)[O-])c2)c1` [Example 21, 4-(4-((4′-chloro-1,1′-biphenyl-2-yl)methyl)piperazin-1-yl)-2-(3-(dimethylamino)phenoxy)-N-((3-nitro-4-((tetrahydro-2H-pyran-4-ylmethyl)amino)phenyl)sulfonyl)benzamide] was tested, and the Ki was 14.1 nM.

In the case of `N#Cc1cccc(Oc2cc(N3CCN(Cc4ccccc4-c4ccc(Cl)cc4)CC3)ccc2C(=O)NS(=O)(=O)c2ccc(NCC3CCOCC3)c([N+](=O)[O-])c2)c1` [Example 22, 4-(4-((4′-chloro-1,1′-biphenyl-2-yl)methyl)piperazin-1-yl)-2-(3-cyanophenoxy)-N-((3-nitro-4-((tetrahydro-2H-pyran-4-ylmethyl)amino)phenyl)sulfonyl)benzamide], the Ki is reported as 5.46 nM.

With `Cc1nc2ccc(Oc3cc(N4CCN(Cc5ccccc5-c5ccc(Cl)cc5)CC4)ccc3C(=O)NS(=O)(=O)c3ccc(NCC4CCOCC4)c([N+](=O)[O-])c3)cc2s1` [Example 23, 4-(4-((4′-chloro-1,1′-biphenyl-2-yl)methyl)piperazin-1-yl)-2-((2-methyl-1,3-benzothiazol-6-yl)oxy)-N-((3-nitro-4-((tetrahydro-2H-pyran-4-ylmethyl)amino)phenyl)sulfonyl)benzamide] the Ki was 8.27 nM.

Compound `Cc1nc2cc(Oc3cc(N4CCN(Cc5ccccc5-c5ccc(Cl)cc5)CC4)ccc3C(=O)NS(=O)(=O)c3ccc(NCCCN4CCOCC4)c([N+](=O)[O-])c3)ccc2s1` [Example 24, 4-(4-((4′-chloro-1,1′-biphenyl-2-yl)methyl)piperazin-1-yl)-2-((2-methyl-1,3-benzothiazol-5-yl)oxy)-N-((4-((3-morpholin-4-ylpropyl)amino)-3-nitrophenyl)sulfonyl)benzamide] has a Ki of 15 nM.

With `Cc1nc2cc(Oc3cc(N4CCN(Cc5ccccc5-c5ccc(Cl)cc5)CC4)ccc3C(=O)NS(=O)(=O)c3ccc(NCCCN(C)C)c([N+](=O)[O-])c3)ccc2s1` [Example 25, 4-(4-((4′-chloro-1,1′-biphenyl-2-yl)methyl)piperazin-1-yl)-N-((4-((3-(dimethylamino)propyl)amino)-3-nitrophenyl)sulfonyl)-2-((2-methyl-1,3-benzothiazol-5-yl)oxy)benzamide] the Ki was 1.5 nM.

In the case of `CN(C)C(=O)CCc1ccccc1Oc1cc(N2CCN(Cc3ccccc3-c3ccc(Cl)cc3)CC2)ccc1C(=O)NS(=O)(=O)c1ccc(NCC2CCOCC2)c([N+](=O)[O-])c1` [Example 26, 4-(4-((4′-chloro-1,1′-biphenyl-2-yl)methyl)piperazin-1-yl)-2-(2-(3-(dimethylamino)-3-oxopropyl)phenoxy)-N-((3-nitro-4-((tetrahydro-2H-pyran-4-ylmethyl)amino)phenyl)sulfonyl)benzamide], the Ki is reported as 0.511 nM.

In the case of `CN(C)C(=O)Cc1ccccc1Oc1cc(N2CCN(Cc3ccccc3-c3ccc(Cl)cc3)CC2)ccc1C(=O)NS(=O)(=O)c1ccc(NCC2CCOCC2)c([N+](=O)[O-])c1` [Example 27, 4-(4-((4′-chloro-1,1′-biphenyl-2-yl)methyl)piperazin-1-yl)-2-(2-(2-(dimethylamino)-2-oxoethyl)phenoxy)-N-((3-nitro-4-((tetrahydro-2H-pyran-4-ylmethyl)amino)phenyl)sulfonyl)benzamide], the Ki is reported as 2.21 nM.

Work on `CN(C)CCCc1ccccc1Oc1cc(N2CCN(Cc3ccccc3-c3ccc(Cl)cc3)CC2)ccc1C(=O)NS(=O)(=O)c1ccc(NCC2CCOCC2)c([N+](=O)[O-])c1` [Example 28, 4-(4-((4′-chloro-1,1′-biphenyl-2-yl)methyl)piperazin-1-yl)-2-(2-(3-(dimethylamino)propyl)phenoxy)-N-((3-nitro-4-((tetrahydro-2H-pyran-4-ylmethyl)amino)phenyl)sulfonyl)benzamide] yielded a Ki of 1.33 nM.

With `CN(C)CCc1ccccc1Oc1cc(N2CCN(Cc3ccccc3-c3ccc(Cl)cc3)CC2)ccc1C(=O)NS(=O)(=O)c1ccc(NCC2CCOCC2)c([N+](=O)[O-])c1` [Example 29, 4-(4-((4′-chloro-1,1′-biphenyl-2-yl)methyl)piperazin-1-yl)-2-(2-(2-(dimethylamino)ethyl)phenoxy)-N-((3-nitro-4-((tetrahydro-2H-pyran-4-ylmethyl)amino)phenyl)sulfonyl)benzamide] the Ki was 0.903 nM.

Work on `CN(C)C(=O)c1ccccc1Oc1cc(N2CCN(Cc3ccccc3-c3ccc(Cl)cc3)CC2)ccc1C(=O)NS(=O)(=O)c1ccc(NCC2CCOCC2)c([N+](=O)[O-])c1` [Example 30, 2-(5-(4-((4′-chlorobiphenyl-2-yl)methyl)piperazin-1-yl)-2-(3-nitro-4-((tetrahydro-2H-pyran-4-yl)methylamino)phenylsulfonylcarbamoyl)phenoxy)-N,N-dimethylbenzamide] yielded a Ki of 0.071 nM.

In the case of `CN(C)Cc1ccccc1Oc1cc(N2CCN(Cc3ccccc3-c3ccc(Cl)cc3)CC2)ccc1C(=O)NS(=O)(=O)c1ccc(NCC2CCOCC2)c([N+](=O)[O-])c1` [Example 31, 4-(4-((4′-chloro-1,1′-biphenyl-2-yl)methyl)piperazin-1-yl)-2-(2-((dimethylamino)methyl)phenoxy)-N-((3-nitro-4-((tetrahydro-2H-pyran-4-ylmethyl)amino)phenyl)sulfonyl)benzamide], the Ki is reported as 2.01 nM.

For `Cc1nc(C)c(-c2cccc(Oc3cc(N4CCN(Cc5ccccc5-c5ccc(Cl)cc5)CC4)ccc3C(=O)NS(=O)(=O)c3ccc(NCCCN4CCOCC4)c([N+](=O)[O-])c3)c2)s1` [Example 33, 4-(4-((4′-chloro-1,1′-biphenyl-2-yl)methyl)piperazin-1-yl)-2-(3-(2,4-dimethyl-1,3-thiazol-5-yl)phenoxy)-N-((4-((3-morpholin-4-ylpropyl)amino)-3-nitrophenyl)sulfonyl)benzamide], the Ki was 7.17 nM.

Work on `CN1CCC(Nc2ccc(S(=O)(=O)NC(=O)c3ccc(N4CCN(CC5=C(c6ccc(Cl)cc6)CC(C)(C)CC5)CC4)cc3Oc3ccccc3Cl)cc2[N+](=O)[O-])CC1` [Example 34, 2-(2-chlorophenoxy)-4-(4-((2-(4-chlorophenyl)-4,4-dimethylcyclohex-1-en-1-yl)methyl)piperazin-1-yl)-N-((4-((1-methylpiperidin-4-yl)amino)-3-nitrophenyl)sulfonyl)benzamide] yielded a Ki of 0.049 nM.

With `CN1CCC(Nc2ccc(S(=O)(=O)NC(=O)c3ccc(N4CCN(CC5=C(c6ccc(Cl)cc6)CC(C)(C)CC5)CC4)cc3Oc3cc(Cl)cc(Cl)c3)cc2[N+](=O)[O-])CC1` [Example 35, 4-(4-((2-(4-chlorophenyl)-4,4-dimethylcyclohex-1-en-1-yl)methyl)piperazin-1-yl)-2-(3,5-dichlorophenoxy)-N-((4-((1-methylpiperidin-4-yl)amino)-3-nitrophenyl)sulfonyl)benzamide] the Ki was 0.022 nM.

`CN1CCC(Nc2ccc(S(=O)(=O)NC(=O)c3ccc(N4CCN(CC5=C(c6ccc(Cl)cc6)CC(C)(C)CC5)CC4)cc3Oc3cccc(Cl)c3)cc2[N+](=O)[O-])CC1` [Example 36, 2-(3-chlorophenoxy)-4-(4-((2-(4-chlorophenyl)-4,4-dimethylcyclohex-1-en-1-yl)methyl)piperazin-1-yl)-N-((4-((1-methylpiperidin-4-yl)amino)-3-nitrophenyl)sulfonyl)benzamide] gave a Ki of 0.07 nM.
